These are literature values, as cited in patent US20230097323A1, “Method and Devices for Transdermal Delivery of Hydrogen Gas for Therapeutic Purposes” (Hyderm Innovations LLC, priority 2021, published 2023).

For data set [1] the following is noted: at ambient temperature.
The conditions of data set [2]: transdermal supply, bag fitted snugly to the skin.

For `[HH]` [hydrogen, Molecular hydrogen], the “solubility of hydrogen in water” value in data set [1] was “about 1.6 mg/l”. The “time until hydrogen concentration in the skin reaches a plateau” value in data set [2] is 40 to 60 min.
